From patent US20020137929A1, “1 - (3-heterocyclylphenyl) isothiourea, -isourea, -guanidine and -amidine herbicidal agents” (Intellectual Property Department, BASF Aktiengesellschaft, priority 1998, published 2002)

Key:
CYPIR (Rice Flatsedge) = assay: Preemergence weed control under flooded paddy conditions; assay type: in vivo, Cyperus iria; conditions: rated 3-4 weeks after treatment
How it was run: (§1)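 Herbicidal effect is scored visually on a 0-9 scale against an untreated control, three to four weeks after compounds are pipetted into the flood water (1.5 to 3 cm deep) over seeds planted in silt loam at 0.5 cm depth. Rates: about 0.0313 to 0.500 kg/ha.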

CYPSE (Flatsedge) [1] = assay: as above; assay type: in vivo, Cyperus serotinus; conditions: rated 3-4 weeks after treatment
How it was run: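 Silt loam, seeds in top 0.5 cm; flood held 1.5-3 cm; test cpd as acetone/water 50/50 into flood water, ~0.0313-0.500 kg/ha a.i.; greenhouse 3-4 wk; visual 0-9 score vs control.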

ORYSAT (Rice, Tebonnet) = assay: Preemergence herbicidal evaluation; assay type: in vivo, Oryza sativa, (L.) Tebonnet; conditions: rated 4-5 weeks after treatment
How it was run: (§2)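 Sown cups got a single aqueous acetone spray of test compound (roughly 0.0156–0.500 kg/ha) before seedlings emerged. Evaluation, 4–5 weeks on, used a 0–9 visual scale covering plant stand, vigor, size, malformation, chlorosis and general appearance compared with controls.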

[2] = system: ECHORC (Watergrass (Calif.)); assay: Postemergence weed control under flooded paddy conditions; assay type: in vivo, Echinochloa oryzoides; conditions: postemergence weeds, rated 3 to 4 weeks after treatment
How it was run: (§3)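 Herbicidal effect is judged by eye on a 0–9 scale versus control, 3–4 weeks after dosing. Dosing is into flood water kept 1.5–3 cm over the soil, at about 0.0313–0.500 kg/ha in aqueous/acetone 50/50 v/v, on 3–5 cm weeds and 1.5–2.5-leaf rice seedlings.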

ZEAMX (Corn, Field) [3] = assay: Postemergence herbicidal evaluation; assay type: in vivo, Zea mays
How it was run: (§4)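 Seedlings grown about two weeks were sprayed at 40 psi with compound dispersed in 50/50 acetone/water plus 0.5% TWEEN 20, at about 0.0156 to 0.500 kg/ha. Plants were kept in the greenhouse and scored 4–5 weeks later on a 0–9 visual scale against untreated controls.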

[4] = system: IPOHE (Morningglory, Ivyleaf); assay: Preemergence herbicidal evaluation; assay type: in vivo, Ipomoea hederacea; conditions: rated 4-5 weeks after treatment
How it was run: as §2

CYPSE (Flatsedge) [5] = assay: Postemergence weed control under flooded paddy conditions; assay type: in vivo, Cyperus serotinus; conditions: postemergence weeds, rated 3 to 4 weeks after treatment
How it was run: as §3

[6] = system: TRZAWR (Wheat, Winter, cv Riband); assay: Preemergence herbicidal evaluation; assay type: in vivo, Triticum aestivum; conditions: rated 4-5 weeks after treatment
How it was run: as §2

GALAP (Galium) = assay: Postemergence herbicidal evaluation; assay type: in vivo, Galium aparine
How it was run: as §4

CASOB (Sicklepod) = assay: Postemergence herbicidal evaluation; assay type: in vivo, Cassia obtusifolia
How it was run: as §4

[7] = system: CHEAL (Lambsquarters, Common); assay: Preemergence herbicidal evaluation; assay type: in vivo, Chenopodium album; conditions: rated 4-5 weeks after treatment
How it was run: as §2

AMBEL (Ragweed, Common) = assay: Preemergence herbicidal evaluation; assay type: in vivo, Ambrosia artemisifolia; conditions: rated 4-5 weeks after treatment
How it was run: as §2

[8] = system: ECHORC (Watergrass (Calif.)); assay: Preemergence weed control under flooded paddy conditions; assay type: in vivo, Echinochloa oryzoides; conditions: rated 3-4 weeks after treatment
How it was run: as §1

ZEAMX (Corn, Field) [9] = assay: Preemergence herbicidal evaluation; assay type: in vivo, Zea mays; conditions: rated 4-5 weeks after treatment
How it was run: as §2

CCOC(=O)CN1C(=O)C(CC(=O)OC(C)C)SC1=Nc1cc(-n2c(=O)cc(C(F)(F)F)n(C)c2=O)c(F)cc1Cl (stereo not shown) [Compound 60, 2-{{2-Chloro-5-[3,6-dihydro-3-methyl-2,6-dioxo-4-(trifluoromethyl)-1(2H)-pyrimidinyl]-4-fluoro-phenyl}imino}-4-oxo-3,5-thiazolidinediacetic acid, 3-ethyl isopropyl ester]
CYPIR herbicidal effect rating (CYPIR (Rice Flatsedge); 0.0313 kg/ha): 3.0 | CYPIR herbicidal effect rating (CYPIR (Rice Flatsedge); 0.0625 kg/ha): 3.0 | CYPIR herbicidal effect rating (CYPIR (Rice Flatsedge); 0.1250 kg/ha): 6.0 | CYPIR herbicidal effect rating (CYPIR (Rice Flatsedge); 0.2500 kg/ha): 6.0 | CYPSE herbicidal effect rating (CYPSE (Flatsedge) [1]; 0.0313 kg/ha): 2.0 | CYPSE herbicidal effect rating (CYPSE (Flatsedge) [1]; 0.0625 kg/ha): 2.0 | CYPSE herbicidal effect rating (CYPSE (Flatsedge) [1]; 0.1250 kg/ha): 4.0 | CYPSE herbicidal effect rating (CYPSE (Flatsedge) [1]; 0.2500 kg/ha): 4.0 | Preemergence herbicidal rating ORYSAT (ORYSAT (Rice, Tebonnet); rate 0.0156 kg/ha): 0.0 | Preemergence herbicidal rating ORYSAT (ORYSAT (Rice, Tebonnet); rate 0.0313 kg/ha): 0.0 | Preemergence herbicidal rating ORYSAT (ORYSAT (Rice, Tebonnet); rate 0.0625 kg/ha): 0.0 | Preemergence herbicidal rating ORYSAT (ORYSAT (Rice, Tebonnet); rate 0.1250 kg/ha): 0.5 | Preemergence herbicidal rating ORYSAT (ORYSAT (Rice, Tebonnet); rate 0.2500 kg/ha): 2.0 | Preemergence herbicidal rating ORYSAT (ORYSAT (Rice, Tebonnet); rate 0.5000 kg/ha): 7.0 | Herbicidal rating ECHORC ([2]; Rate 0.0313 kg/ha): 7.0 | Herbicidal rating ECHORC ([2]; Rate 0.0625 kg/ha): 9.0 | Herbicidal rating ECHORC ([2]; Rate 0.1250 kg/ha): 9.0 | Herbicidal rating ECHORC ([2]; Rate 0.2500 kg/ha): 9.0 | Postemergence herbicidal rating ZEAMX (ZEAMX (Corn, Field) [3]; Rate 0.0158 kg/ha): 5.0 | Postemergence herbicidal rating ZEAMX (ZEAMX (Corn, Field) [3]; Rate 0.0315 kg/ha): 5.0 | Postemergence herbicidal rating ZEAMX (ZEAMX (Corn, Field) [3]; Rate 0.0630 kg/ha): 5.5 | Preemergence herbicidal rating IPOHE ([4]; rate 0.0156 kg/ha): 0.0 | Preemergence herbicidal rating IPOHE ([4]; rate 0.0313 kg/ha): 0.0 | Preemergence herbicidal rating IPOHE ([4]; rate 0.0625 kg/ha): 0.0 | Preemergence herbicidal rating IPOHE ([4]; rate 0.1250 kg/ha): 2.0 | Preemergence herbicidal rating IPOHE ([4]; rate 0.2500 kg/ha): 5.0 | Preemergence herbicidal rating IPOHE ([4]; rate 0.5000 kg/ha): 9.0 | Herbicidal rating CYPSE (CYPSE (Flatsedge) [5]; Rate 0.0313 kg/ha): 2.0 | Herbicidal rating CYPSE (CYPSE (Flatsedge) [5]; Rate 0.0625 kg/ha): 2.0 | Herbicidal rating CYPSE (CYPSE (Flatsedge) [5]; Rate 0.1250 kg/ha): 4.0 | Herbicidal rating CYPSE (CYPSE (Flatsedge) [5]; Rate 0.2500 kg/ha): 4.0 | Preemergence herbicidal rating TRZAWR ([6]; rate 0.0156 kg/ha): 0.0 | Preemergence herbicidal rating TRZAWR ([6]; rate 0.0313 kg/ha): 0.0 | Preemergence herbicidal rating TRZAWR ([6]; rate 0.0625 kg/ha): 0.0 | Preemergence herbicidal rating TRZAWR ([6]; rate 0.1250 kg/ha): 1.0 | Preemergence herbicidal rating TRZAWR ([6]; rate 0.2500 kg/ha): 1.0 | Postemergence herbicidal rating GALAP (GALAP (Galium); Rate 0.0158 kg/ha): 0.0 | Postemergence herbicidal rating GALAP (GALAP (Galium); Rate 0.0315 kg/ha): 2.0 | Postemergence herbicidal rating GALAP (GALAP (Galium); Rate 0.0630 kg/ha): 5.0 | Postemergence herbicidal rating CASOB (CASOB (Sicklepod); Rate 0.0158 kg/ha): 0.0 | Postemergence herbicidal rating CASOB (CASOB (Sicklepod); Rate 0.0315 kg/ha): 0.0 | Postemergence herbicidal rating CASOB (CASOB (Sicklepod); Rate 0.0630 kg/ha): 3.0 | Preemergence herbicidal rating CHEAL ([7]; rate 0.0156 kg/ha): 9.0 | Preemergence herbicidal rating CHEAL ([7]; rate 0.0313 kg/ha): 8.0 | Preemergence herbicidal rating CHEAL ([7]; rate 0.0625 kg/ha): 9.0 | Preemergence herbicidal rating CHEAL ([7]; rate 0.1250 kg/ha): 9.0 | Preemergence herbicidal rating CHEAL ([7]; rate 0.2500 kg/ha): 9.0 | Preemergence herbicidal rating CHEAL ([7]; rate 0.5000 kg/ha): 9.0 | Preemergence herbicidal rating AMBEL (AMBEL (Ragweed, Common); rate 0.0156 kg/ha): 0.0 | Preemergence herbicidal rating AMBEL (AMBEL (Ragweed, Common); rate 0.0313 kg/ha): 0.0 | Preemergence herbicidal rating AMBEL (AMBEL (Ragweed, Common); rate 0.0625 kg/ha): 2.0 | Preemergence herbicidal rating AMBEL (AMBEL (Ragweed, Common); rate 0.1250 kg/ha): 7.0 | Preemergence herbicidal rating AMBEL (AMBEL (Ragweed, Common); rate 0.2500 kg/ha): 7.0 | Preemergence herbicidal rating AMBEL (AMBEL (Ragweed, Common); rate 0.5000 kg/ha): 9.0 | ECHORC herbicidal effect rating ([8]; 0.0313 kg/ha): 7.0 | ECHORC herbicidal effect rating ([8]; 0.0625 kg/ha): 9.0 | ECHORC herbicidal effect rating ([8]; 0.1250 kg/ha): 9.0 | ECHORC herbicidal effect rating ([8]; 0.2500 kg/ha): 9.0 | Preemergence herbicidal rating ZEAMX (ZEAMX (Corn, Field) [9]; rate 0.0156 kg/ha): 0.0 | Preemergence herbicidal rating ZEAMX (ZEAMX (Corn, Field) [9]; rate 0.0313 kg/ha): 0.0 | Preemergence herbicidal rating ZEAMX (ZEAMX (Corn, Field) [9]; rate 0.0625 kg/ha): 0.5 | Preemergence herbicidal rating ZEAMX (ZEAMX (Corn, Field) [9]; rate 0.1250 kg/ha): 1.5 | Preemergence herbicidal rating ZEAMX (ZEAMX (Corn, Field) [9]; rate 0.2500 kg/ha): 3.0 | Preemergence herbicidal rating ZEAMX (ZEAMX (Corn, Field) [9]; rate 0.5000 kg/ha): 8.0
